The test system of data set [1] is male broiler chickens (Ross 708). Conditions: in vivo.
For data set [2] the test system is unchanged. The data set can be described thus: First study: growth performance and carcass evaluation in broilers fed HPKFAD or LA.
Another data set relates to grow-finish pigs. The data set can be described thus: Fifth study: growth performance of grow-finish pigs fed HLAD, LA or BMD. Conditions: P<0.05.
Data set [3] concerns pigs (initial BW of 9.98 lbs). The experiment in a line: Fourth study: nursery pig challenge model (dirty room) with LAD, Mecadox, calsporin. Format: in vivo. To be noted: severely challenged pigs; d 0 to 40. As for the experimental part: A total of 96 pigs (initial BW of 9.98 lbs) were allotted to one of 8 treatments (12 replicates per treatment with 1 pigs per replicate). The treatments were 1) a negative control (NC) diet with no antibiotic (Ab), 2) a control diet with an Ab (Mecadox), 3) a diet with LAD at 0.25%, 4) a diet with LAD at 0.5%, 5) a diet with LAD at 1%, 6) a diet with calsporin, 7) a diet with calsporin and LAD at 1%, 8) and a diet with calsporin and LAD at 0.5%. Feed intakes and body weights were determined at the end of each feeding phase. […] Also, ZnO and CuSO4 were not added into the diet to enhance the challenge. The feeding phases were from d 0 to […], d 11 to 20, d 20 to 40. The data, especially from Phase 1 and 2, illustrated the pigs were severely challenged in this trial, which enhanced the effect of the antibiotic. […] The optimum level of LAD was 0.25% for the early growth period and increased to 0.50% for the later growth period. Accordingly, the recommended level of HLAD to be fed to nursery pigs is between 0.25% and 0.5%.

The test system of data set [4] is broilers challenged with coccidia and Clostridia perfringens. It counts as in vivo.
Data set [5] has as its system broilers challenged with coccidian vaccine and Clostridium Perfringens. Format: in vivo. Conditions: versus negative control; throughout the study.
The test system is the same in data set [6]. Format: in vivo. To be noted: diets that contained papain relative to any other diet; P<0.05.

Regarding `CCCCCCCCCCCC(=O)O` [LA, lauric acid], the “Removed Animals (Adverse Event), overall proportion of animals removed” value in data set [1] is given as “no differences”. Also, the “overall ADFI” value in data set [2] (LA 0.1% versus negative control, P=0.166) is reported as “numerically lower but not statistically significant”; in data set [2] (all non-zero LA treatments except 0.1% versus negative control), “decrease”; in data set [2] (all non-zero treatments versus negative control, P 0.045), “decrease”. Also, in data set [2] (LA included at 0.2 and 0.4%, P 0.038), the “overall ADG” value is on record as “decline in overall ADG”. The “breast and leg yield” value in data set [2] (LA treatments) is reported as “did not so such an increase”. For the same molecule, in data set [2] (across inclusion levels, P<0.001), the “overall feed efficiency, dose response” value was “significant linear and plateau responses”. Also, in data set [2] (included at 0.4 and 0.8% compared to negative control, P>0.016 as printed), the overall feed efficiency result is “improved”. For the same molecule, the “Average Hot Carcass Weight” value in data set [2] (non-zero treatments versus control, P≧0.111) is reported as “no differences”. Moreover, the “Average Breast Weight” value in data set [2] (non-zero treatments versus control, P≧0.236) is reported as “no treatment differences”. In data set [2] (non-zero treatments versus control, P≧0.267), the “Average Leg Weight” value is “no treatment differences”. Further, the “Percent Leg Yield” value in data set [2] (other HPKFAD and LA treatment comparisons, P≧0.195) is reported as “No other treatment differences”. Also, the “Percent Breast Yield” value in data set [2] (other HPKFAD and LA treatment comparisons, P≧0.404) is “No other treatment differences”. Moreover, in the data set on grow-finish pigs (LA at 0.1% relative to control diet or HLAD at 0.4%), the “ADFI, Phase 3” value was “decreased”.

As to `COC(=O)N/N=C/c1c[n+]([O-])c2ccccc2[n+]1[O-]` [Mecadox], the “performance (feed intakes and body weights)” value in data set [3] is given as “improved performance”.

On to bacitracin methylene disalicylate [BMD], for which the figures for the performance entry in data set [4] (BMD) and in data set [5] were “only tended to improve performance” and “tended to have improved performance”, respectively. Also, in data set [4] (BMD relative to any other dietary treatment, P<0.05), the “feed intake, day 7” value is given as “higher”. The “Feed efficiency, Phase 2” value in the data set on grow-finish pigs (antibiotic relative to LA at 0.1% or HLAD at 0.4%) is listed as “increased”.

B1: papain: protease fed alone and in combination with hydrolyzed lauric acid (protein, UniProt P00784 134-345, looked up)
Papain: IPEYVDWRQKGAVTPVKNQGSCGSCWAFSAVVTIEGIIKIRTGNLNEYSEQELLDCDRRSYGCNGGYPWSALQLVAQYGIHYRNTYPYEGVQRYCRSREKGPYAAKTDGVRQVQPYNEGALLYSIANQPVSVVLEAAGKDFQLYRGGIFVGPCGNKVDHAVAAVGYGPNYILIKNSWGTGWGENGYIRIKRGTGNSYGVCGLYTSSFYPVKN
For the molecule B1, in data set [6], the ADG result was “decreased” and the Feed intake result was “decreased”.
